Conditions: Liquid, Vibrating tube method

FC(C(F)(F)F)C(F)(F)F [1,1,1,2,3,3,3-heptafluoropropane]
Conditions | mass density [kg/m3]
293.14 K, 33440 kPa | 1551.5
293.14 K, 33474 kPa | 1551.5
293.14 K, 33518 kPa | 1551.7
293.14 K, 33554 kPa | 1551.8
293.14 K, 33589 kPa | 1552
293.15 K, 458 kPa | 1409.2
293.15 K, 459 kPa | 1409.3
293.15 K, 461 kPa | 1409.2
293.15 K, 466 kPa | 1409.3
293.15 K, 478 kPa | 1409.2
293.15 K, 498 kPa | 1409.3
293.15 K, 525 kPa | 1409.6
293.15 K, 545 kPa | 1409.8
293.15 K, 569 kPa | 1409.9
293.15 K, 591 kPa | 1410.2
293.15 K, 616 kPa | 1410.3
293.15 K, 647 kPa | 1410.5
293.15 K, 682 kPa | 1410.9
293.15 K, 712 kPa | 1411
293.15 K, 757 kPa | 1411.3
293.15 K, 1646 kPa | 1417.7
293.15 K, 1682 kPa | 1417.8
293.15 K, 1714 kPa | 1418.1
293.15 K, 1855 kPa | 1419.1
293.15 K, 2431 kPa | 1422.8
293.15 K, 2456 kPa | 1423.1
293.15 K, 2481 kPa | 1423.1
293.15 K, 2506 kPa | 1423.3
293.15 K, 2536 kPa | 1423.7
293.15 K, 2566 kPa | 1423.7
293.15 K, 2590 kPa | 1424
293.15 K, 2619 kPa | 1424.2
293.15 K, 2653 kPa | 1424.3
293.15 K, 3787 kPa | 1431.6
293.15 K, 3853 kPa | 1432
293.15 K, 3906 kPa | 1432.2
293.15 K, 3939 kPa | 1432.5
293.15 K, 3976 kPa | 1432.7
293.15 K, 4019 kPa | 1432.9
293.15 K, 4053 kPa | 1433.1
293.15 K, 4077 kPa | 1433.4
293.15 K, 4124 kPa | 1433.7
293.15 K, 4157 kPa | 1434
293.15 K, 4195 kPa | 1434
293.15 K, 4219 kPa | 1434.2
293.15 K, 4259 kPa | 1434.4
293.15 K, 4286 kPa | 1434.6
293.15 K, 4322 kPa | 1434.7
293.15 K, 4367 kPa | 1435
293.15 K, 4394 kPa | 1435.3
293.15 K, 4425 kPa | 1435.6
293.15 K, 4452 kPa | 1435.7
293.15 K, 4488 kPa | 1435.9
293.15 K, 4515 kPa | 1435.9
293.15 K, 4556 kPa | 1436.2
293.15 K, 4587 kPa | 1436.4
293.15 K, 4614 kPa | 1436.6
293.15 K, 4655 kPa | 1436.8
293.15 K, 4687 kPa | 1437
293.15 K, 4727 kPa | 1437.2
293.15 K, 4754 kPa | 1437.4
293.15 K, 4791 kPa | 1437.7
293.15 K, 4815 kPa | 1437.8
293.15 K, 4846 kPa | 1438.1
293.15 K, 5062 kPa | 1439.2
293.15 K, 5095 kPa | 1439.5
293.15 K, 5137 kPa | 1439.6
293.15 K, 5170 kPa | 1440
293.15 K, 5198 kPa | 1440
293.15 K, 5231 kPa | 1440.3
293.15 K, 5259 kPa | 1440.4
293.15 K, 5292 kPa | 1440.6
293.15 K, 5321 kPa | 1440.8
293.15 K, 5364 kPa | 1440.9
293.15 K, 5392 kPa | 1441.2
293.15 K, 5435 kPa | 1441.5
293.15 K, 5472 kPa | 1441.7
293.15 K, 5500 kPa | 1441.9
293.15 K, 5537 kPa | 1442.1
293.15 K, 5566 kPa | 1442.2
293.15 K, 5610 kPa | 1442.3
293.15 K, 5639 kPa | 1442.6
293.15 K, 5678 kPa | 1442.8
293.15 K, 5720 kPa | 1443
293.15 K, 5755 kPa | 1443.2
293.15 K, 5784 kPa | 1443.4
293.15 K, 5818 kPa | 1443.6
293.15 K, 5848 kPa | 1443.8
293.15 K, 5896 kPa | 1444
293.15 K, 5921 kPa | 1444.1
293.15 K, 5955 kPa | 1444.4
293.15 K, 5984 kPa | 1444.6
293.15 K, 6018 kPa | 1444.7
293.15 K, 6043 kPa | 1444.8
293.15 K, 6073 kPa | 1445
293.15 K, 6113 kPa | 1445.2
293.15 K, 6138 kPa | 1445.5
293.15 K, 6174 kPa | 1445.6
293.15 K, 6205 kPa | 1445.7
293.15 K, 6235 kPa | 1445.9
293.15 K, 6260 kPa | 1446.1
293.15 K, 6295 kPa | 1446.2
293.15 K, 6323 kPa | 1446.4
293.15 K, 6351 kPa | 1446.6
293.15 K, 6375 kPa | 1446.8
293.15 K, 6408 kPa | 1446.9
293.15 K, 6437 kPa | 1447
293.15 K, 6477 kPa | 1447.3
293.15 K, 6508 kPa | 1447.5
293.15 K, 6534 kPa | 1447.6
293.15 K, 6566 kPa | 1447.6
293.15 K, 6593 kPa | 1447.9
293.15 K, 6624 kPa | 1448.1
293.15 K, 6655 kPa | 1448.4
293.15 K, 6682 kPa | 1448.4
293.15 K, 6721 kPa | 1448.5
293.15 K, 6752 kPa | 1448.8
293.15 K, 6792 kPa | 1449
293.15 K, 6823 kPa | 1449.3
293.15 K, 6862 kPa | 1449.5
293.15 K, 6885 kPa | 1449.5
293.15 K, 6918 kPa | 1449.8
293.15 K, 6944 kPa | 1449.9
293.15 K, 6979 kPa | 1450
293.15 K, 7002 kPa | 1450.1
293.15 K, 7034 kPa | 1450.4
293.15 K, 7074 kPa | 1450.7
293.15 K, 7106 kPa | 1450.7
293.15 K, 7134 kPa | 1450.8
293.15 K, 7160 kPa | 1450.9
293.15 K, 7196 kPa | 1451.2
293.15 K, 7223 kPa | 1451.4
293.15 K, 7255 kPa | 1451.5
293.15 K, 7292 kPa | 1451.6
293.15 K, 7319 kPa | 1451.9
293.15 K, 7352 kPa | 1452
293.15 K, 7380 kPa | 1452.1
293.15 K, 7413 kPa | 1452.4
293.15 K, 7445 kPa | 1452.6
293.15 K, 7478 kPa | 1452.7
293.15 K, 7506 kPa | 1452.9
293.15 K, 7543 kPa | 1453.2
293.15 K, 7575 kPa | 1453.2
293.15 K, 7829 kPa | 1454.6
293.15 K, 8576 kPa | 1458.4
293.15 K, 8615 kPa | 1458.6
293.15 K, 8640 kPa | 1458.7
293.15 K, 8669 kPa | 1458.9
293.15 K, 8716 kPa | 1459.1
293.15 K, 8745 kPa | 1459.3
293.15 K, 8774 kPa | 1459.5
293.15 K, 8814 kPa | 1459.7
293.15 K, 8862 kPa | 1459.9
293.15 K, 8888 kPa | 1460
293.15 K, 8923 kPa | 1460.2
293.15 K, 8958 kPa | 1460.4
293.15 K, 8988 kPa | 1460.5
293.15 K, 9023 kPa | 1460.7
293.15 K, 9057 kPa | 1461
293.15 K, 9081 kPa | 1461.1
293.15 K, 9121 kPa | 1461.1
293.15 K, 9156 kPa | 1461.3
293.15 K, 9182 kPa | 1461.5
293.15 K, 9258 kPa | 1461.9
293.15 K, 9989 kPa | 1465.5
293.15 K, 10025 kPa | 1465.7
293.15 K, 10056 kPa | 1465.8
293.15 K, 10087 kPa | 1465.9
293.15 K, 10128 kPa | 1466.3
293.15 K, 10154 kPa | 1466.4
293.15 K, 10195 kPa | 1466.7
293.15 K, 10240 kPa | 1466.8
293.15 K, 10275 kPa | 1466.7
293.15 K, 10316 kPa | 1467.1
293.15 K, 10555 kPa | 1468.1
293.15 K, 10597 kPa | 1468.5
293.15 K, 10638 kPa | 1468.7
293.15 K, 10669 kPa | 1468.7
293.15 K, 10706 kPa | 1469
293.15 K, 10738 kPa | 1469.2
293.15 K, 10775 kPa | 1469.4
293.15 K, 10808 kPa | 1469.4
293.15 K, 10851 kPa | 1469.6
293.15 K, 10882 kPa | 1469.7
293.15 K, 10920 kPa | 1470
293.15 K, 10958 kPa | 1470.2
293.15 K, 11044 kPa | 1470.6
293.15 K, 11082 kPa | 1470.6
293.15 K, 11132 kPa | 1470.9
293.15 K, 11159 kPa | 1471.4
293.15 K, 11209 kPa | 1471.3
293.15 K, 11254 kPa | 1471.6
293.15 K, 11292 kPa | 1471.8
293.15 K, 11324 kPa | 1471.9
293.15 K, 11368 kPa | 1472.1
293.15 K, 11401 kPa | 1472.3
293.15 K, 11439 kPa | 1472.4
293.15 K, 11473 kPa | 1472.6
293.15 K, 11518 kPa | 1472.8
293.15 K, 11556 kPa | 1472.9
293.15 K, 11601 kPa | 1473.2
293.15 K, 11629 kPa | 1473.3
293.15 K, 11668 kPa | 1473.4
293.15 K, 11713 kPa | 1473.7
293.15 K, 11752 kPa | 1473.8
